Source: patent US20190054097A1, “COMPOSITIONS TARGETING SENESCENT CELLS AND THE USES THEREOF” (BioVentures, LLC, priority 2016, published 2019)
Read-outs that look alike come from different tables or passages of the source.

How the values were obtained:
Format in all cases: cell-based
[1] = tested on: Normal WI38 (NSC); assay: Viability of normal WI38 cells, PI staining and flow cytometry, 72 hours
Method: (§1) Normal WI38 (NSC) and IR-induced senescent WI38 cells (IR-SC) were incubated with vehicle or increasing concentrations of compounds of Formula (I) or Formula (II) for 72 hours. The cells were digested with 0.25% trypsin and 1 mM EDTA, and harvested in PBS containing 2% FBS. After incubation with propidium iodide (PI, 100 ng/ml) in PBS at room temperature for 1 minute, cells were centrifuged at 1,200 rpm for 6 minutes to remove PI and then resuspended in PBS containing 2% FBS for analysis using a flow cytometer. Viable cells (PI− cells) were analyzed by flow cytometry at a constant flow rate to count the number of cells and calculated as a percentage of control cells treated with vehicle. Table 1 depicts the EC50 values of the compounds of Formula (I) and compounds of Formula (II) against normal WI38 and IR-induced senescent WI38.

[2] = tested on: IR-induced senescent WI38 cells (IR-SC); assay: Viability of IR-induced senescent WI38 cells, PI staining and flow cytometry, 72 hours; settings: for EC50: IR-induced senescent WI38 cells, 72 hours, viable PI- cells as percentage of vehicle control; for Ratio NSC/SC: ratio of WI38 EC50 in normal cells to EC50 in IR-induced senescent cells
Method: as §1

[3] = tested on: RS4; 11 cancer cells; assay: Cancer cell viability by MTS, 72 hours; settings: 11 cells
Method: (§2) RS4; 11 and NCI-H146 cancer cells were incubated with vehicle or increasing concentrations of compounds of Formula (I) and Formula (II). At 72 hours post-treatment cell viability was measured by MTS and EC50 was calculated as a percentage of control cells treated with vehicle. Table 1 depicts the EC50 values of compounds of Formula (I) and Formula (II) against RS4; 11 and NCI-H146.

[4] = tested on: NCI-H146 cancer cells; assay: Cancer cell viability by MTS, 72 hours
Method: as §2

[5] = Homo sapiens, WI-38, viable PI- cells as percentage of vehicle control
[6] = viable PI- cells as percentage of vehicle control

For `CC1(C)CCC(c2ccc(Cl)cc2)=C(CN2CCN(c3ccc(C(=O)NS(=O)(=O)c4ccc(N[C@H](CCN5CCN(C(=O)CCCn6cc(COCCOCCNc7cccc8c7C(=O)N(C7CCC(=O)NC7=O)C8=O)nn6)CC5)CSc5ccccc5)c(S(=O)(=O)C(F)(F)F)c4)cc3)CC2)C1` (stereo partly drawn) [PZ-15227, 4-(4-((4′-chloro-4,4-dimethyl-3,4,5,6-tetrahydro-[1,1′-biphenyl]-2-yl)methyl)piperazin-1-yl)-N-((4-(((2R)-4-(4-(4-(4-((2-(2-((2-(2,6-dioxopiperidin-3-yl)-1,3-dioxoisoindolin-4-yl)amino)ethoxy)ethoxy)methyl)-1H-1,2,3-triazol-1-yl)butanoyl)piperazin-1-yl)-1-(phenylthio)butan-2-yl)amino)-3-((trifluoromethyl)sulfonyl)phenyl)sulfonyl)benzamide], the EC50 [1, 5] was > 10000 nM, the EC50 ([2]; Homo sapiens, WI-38) was 108 nM and the “Ratio NSC/SC” value [2] was >92. It also gave an EC50 ([3]; Homo sapiens) of 114 nM and an EC50 ([4]; Homo sapiens) of 68.9 nM.

In the case of `CC(C)(C)OC(=O)N1CCN(CC#Cc2ccc(OCCCc3sc(N4CCc5cccc(C(=O)Nc6nc7ccccc7s6)c5C4)nc3C(=O)O)c(F)c2)CC1` [XZ-13861], the EC50 [1, 6] is reported as 32800 nM, the “Selective inhibition of IR-SC WI38 cells versus normal WI38 cells” value ([2]; FIG. 2A, FIG. 2B, dose dependent) is reported as “selectively inhibits IR-SC WI38 cells but not normal WI38 cells in a dose-dependent manner” and the EC50 [2] is reported as 3120 nM.

`Cc1ncsc1-c1ccc(CNC(=O)[C@@H]2C[C@@H](O)CN2C(=O)[C@@H](NC(=O)COCCOCCOCc2cn(CCCC(=O)N3CCN(CC#Cc4ccc(OCCCc5sc(N6CCc7cccc(C(=O)Nc8nc9ccccc9s8)c7C6)nc5C(=O)O)c(F)c4)CC3)nn2)C(C)(C)C)cc1` [XZ-14455, 2-(8-(benzo[d]thiazol-2-ylcarbamoyl)-3,4-dihydroisoquinolin-2(1H)-yl)-5-(3-(2-fluoro-4-(3-(4-(4-(4-((S)-12-((2S,4R)-4-hydroxy-2-((4-(4-methylthiazol-5-14)benzyl)carbamoyl)pyrrolidine-1-carbonyl)-13,13-dimethyl-10-oxo-2,5,8-trioxa-11-azatetradecyl)-1H-1,2,3-triazol-1-yl)butanoyl)piperazin-1-yl)prop-1-yn-1-yl)phenoxy)propyl)thiazole-4-carboxylic acid] was tested, and the EC50 [1, 6] was 5000 nM, the EC50 [2] was 1470 nM and the “Ratio NSC/SC” value [2] was 3.40. For the same molecule, the EC50 [3] was > 2000 nM and the EC50 [4] was > 2000 nM.

In the case of `CC1(C)CCC(c2ccc(Cl)cc2)=C(CN2CCN(c3ccc(C(=O)NS(=O)(=O)c4ccc(N[C@H](CCN5CCN(C(=O)COCCOCCOCCNc6cccc7c6C(=O)N(C6CCC(=O)NC6=O)C7=O)CC5)CSc5ccccc5)c(S(=O)(=O)C(F)(F)F)c4)cc3)CC2)C1` (stereo partly drawn) [XZ-14510, 4-(4-((4′-chloro-4,4-dimethyl-3,4,5,6-tetrahydro-[1,1′-biphenyl]-2-yl)methyl)piperazin-1-yl)-N-((4-(((2R)-4-(4-(2-(2-(2-(2-((2-(2,6-dioxopiperidin-3-yl)-1,3-dioxoisoindolin-4-yl)amino)ethoxy)ethoxy)ethoxy)acetyl)piperazin-1-yl)-1-(phenylthio)butan-2-yl)amino)-3-((trifluoromethyl)sulfonyl)phenyl)sulfonyl)benzamide], the “Ratio NSC/SC” value [2] is reported as >56.

In the case of `CC1(C)CCC(c2ccc(Cl)cc2)=C(CN2CCN(c3ccc(C(=O)NS(=O)(=O)c4ccc(N[C@H](CCN5CCN(CCOCCOCCOCCNc6cccc7c6C(=O)N(C6CCC(=O)NC6=O)C7=O)CC5)CSc5ccccc5)c(S(=O)(=O)C(F)(F)F)c4)cc3)CC2)C1` (stereo partly drawn) [XZ-15418, 4-(4-((4′-chloro-4,4-dimethyl-3,4,5,6-tetrahydro-[1,1′-biphenyl]-2-yl)methyl)piperazin-1-yl)-N-((4-(((2R)-4-(4-(2-(2-(2-(2-((2-(2,6-dioxopiperidin-3-yl)-1,3-dioxoisoindolin-4-yl)amino)ethoxy)ethoxy)ethoxy)ethyl)piperazin-1-yl)-1-(phenylthio)butan-2-yl)amino)-3-((trifluoromethyl)sulfonyl)phenyl)sulfonyl)benzamide], the EC50 [1, 5] is reported as > 10000 nM, the EC50 ([2]; Homo sapiens, WI-38) is reported as 172 nM and the EC50 ([3]; Homo sapiens) is reported as 12.3 nM.
